pEC50: −log10 of the molar value. Where two headings read alike, the source gives them in different places.
Key:
[1] = test system: A10 smooth muscle cells; conditions: for response of detector cells (JC-1 fluorescence): five-concentration grid
Method: Cells were grown to confluence on tissue culture treated polystyrene in DMEM 10% FCS, 100 μg/ml streptomycin and 100 IU/ml penicillin. […] FCCP. FCCP (Sigma) was printed onto a supported porous aluminium oxide filter (Anopore, Whatman International Ltd, Maidstone, Kent, UK) in a 5×5 spot grid, at a single concentration of 50 μM in DMSO, or as five rows of five spots (50, 5, […], 0.05 and 0.005 μM in DMSO) and allowed to dry. The volume of liquid in each spot was approximately 1 nanoliter. The A10 cells were loaded for 25 min in KRW supplemented with 10% FCS and 5 μM JC-1 (Molecular Probes Inc.) at 37° C. After three washes in KRW, the cells were placed on the stage of a Nikon Diaphot epifluorescence microscope and imaged using a 2× plan apochromatic objective and a CCD camera (Princeton Instruments, NY USA). The cells were excited by 450-490 nm light and light emitted from the cells was filtered by a dichroic mirror (505 nm) and an emission filter (510-560 nm). Exposure/ntegration times of 0.5 s were used and images acquired at 4 s intervals. At the time indicated as 0 in FIGS. 8 and 9 a filter with spots of FCCP in the patterns mentioned above was lowered down into the buffer overlying the cells and rapidly adjusted to a distance of about 300 μm above the cell layer and thereafter fixed in that position.

[2] = test system: A10 smooth muscle cells; conditions: read-out: EC50 for a mitochondrial depolarisation in these cells, known value; cited from earlier work
[3] = test system: BHKhM1 cells; test: Fluo-3 calcium response of BHKhM1 cells on porous membrane lowered onto compound spots on glass; type: cell-based; conditions: approx. 10 nanoliters
Method: Ionomycin was printed onto a glass surface at two concentrations (10 mM and 1 mM), and thapsigargin was printed onto the surface at 1 mM. All spots were allowed to dry. The volume of liquid spotted was approx. 10 nanoliters per spot. At the time indicated as 0 s the still-wet membrane with the cells was lowered down onto the glass surface so that the membrane and the glass came in direct contact, thereby dissolving the compounds deposited in the spots.

| SMILES | response of detector cells (JC-1 fluorescence) ([1]; spot concentration 0.005 μM in DMSO) | response of detector cells (JC-1 fluorescence) ([1]; spot concentration 0.05 μM in DMSO) | response of detector cells (JC-1 fluorescence) ([1]; spot concentration 0.5 μM in DMSO) | response of detector cells (JC-1 fluorescence) ([1]; spot concentration 5 μM in DMSO) | response of detector cells (JC-1 fluorescence) ([1]; spot concentration 50 μM in DMSO) | fluorescence intensity time profile (mitochondrial membrane depolarisation) ([1]; spots of 50 μM in DMSO, 5×5 grid, single concentration) | lag phase before rise in fluorescence intensity ([1]; spots of 50 μM in DMSO, approx. 1 nanoliter, five central spots) | pEC50 [2] | Fluo-3 fluorescence response (time profile) ([3]; spots printed at 1 mM) | Fluo-3 fluorescence response (onset, spatial size, intensity) ([3]; spots printed at 10 mM) | Fluo-3 fluorescence response (time profile) ([3]; spots printed at 10 mM) |
| --- | --- | --- | --- | --- | --- | --- | --- | --- | --- | --- | --- |
| N#CC(C#N)=NNc1ccc(OC(F)(F)F)cc1 [FCCP, carbonyl cyanide p-trifluoromethoxyphenylhydrazone] | do not show detectable responses | do not show detectable responses | clearly give positive responses | clearly give positive responses | quickest response | steep rise in fluorescence intensity | 10 to 15 s | ~8.10 |  |  |  |
| C[C@H](CCC(=O)O)C[C@H](C)C[C@H](C)C(=O)/C=C(\O)[C@H](C)C[C@H](C)C/C=C/[C@@H](C)[C@@H](O)[C@@H](C)[C@@H](O)C[C@@H]1CC[C@@](C)([C@H]2CC[C@@](C)([C@@H](C)O)O2)O1 [Ionomycin, ionomycin] |  |  |  |  |  |  |  |  | sustained responses | earliest, spatially largest, and most intense response | sustained responses |
| C/C=C(/C)C(=O)O[C@H]1C(C)=C2[C@H]([C@@H]1OC(=O)CCCCCCC)[C@@](C)(OC(C)=O)C[C@H](OC(=O)CCC)[C@@]1(O)[C@H]2OC(=O)[C@@]1(C)O [thapsigargin] |  |  |  |  |  |  |  |  | transient and lower in intensity than that of either concentration of ionomycin |  |  |
